Patent US9526254B2, “Pesticide and repellant” (ECOSPRAY LIMITED, priority 2005, dated 2016)

System: cabbage root fly
Test: Swede field trials in Norway, cabbage root fly damage (four sites)
Assay type: in vivo
Method: An extensive program of non-public field trials, which included five crops of swede were carried out. The field trials design was based around multiple applications of either ECOguard® liquid (garlic juice concentrate) or granules (wood flour granules impregnated with the garlic juice concentrate) and in four out of the five swede trials was referenced against Dimethoate as a standard.

CNC(=O)CSP(=S)(OC)OC [Dimethoate]
Combined root damage index (RDI), % Change (in vivo): −5.8% | Combined root damage index (RDI), Ga-Fa (in vivo): 65.78 | Combined root damage index (RDI), Mid-Troms (in vivo): 40.60 | Combined root damage index (RDI), Sor Ost (in vivo): 24.92 | Combined root damage index (RDI), Toten (in vivo): 44.33 | Difference of Means (trt 1 control subtracted from trt), cabbage root fly damage (in vivo): −0.3100 | cabbage root fly damage, statistical analysis (in vivo): significantly reduced damage | mean saleable yield (cat 1 + 2), % Change (mean of four sites versus control): +8%
